Source: patent US20160346249A1 (priority 2012, published 2016)
Like-named read-outs stand apart in the source and are kept apart here.

Columns and labels:
[1] = Rat pulmonary function study; type: in vivo; conditions: for animals with test article-related clinical observations: 6 hours post-dosing
Method: There were eight male rats per group. Clinical examinations were performed daily, and detailed physical examinations were performed prior to dosing and again following pulmonary functional assessments. Four replicates of 2 animals from each treatment group were evaluated over a 2-week period. Following dose administration, the rats were placed in a head-out neck-sealed plethysmograph for measurement of pulmonary function parameters (respiratory rate, tidal volume, and calculated minute volume). Pulmonary function data were collected for at least 60 minutes prior to dosing (Day −1) and for at least 6 hours post-dosing on Day 0.

[2] = Rabbit pilot developmental toxicity study; type: in vivo; conditions: 30 mg/kg/day, GD 14
Method: On GD 29, a laparohysterectomy was performed on each surviving female.

[3] = biological target: T1, serotonin transporters (SERT) in the human brain (Homo sapiens, UniProt P31645); assay: Open label PET study with [11C]DASB (DOV 947-007); type: in vivo; conditions: for brain SERT occupancy: 150 mg single oral dose; for Mean (Range) SERT Occupancy, Mean / Mean (Range) SERT Occupancy, Striatum / Mean (Range) SERT Occupancy, Thalamus: EB-1010 150 mg single oral, N = 3, preliminary
T1 construct: from tissue; host or cells: brain of healthy male volunteers, in vivo PET with [11C]DASB
T1 sequence (P31645 whole entry): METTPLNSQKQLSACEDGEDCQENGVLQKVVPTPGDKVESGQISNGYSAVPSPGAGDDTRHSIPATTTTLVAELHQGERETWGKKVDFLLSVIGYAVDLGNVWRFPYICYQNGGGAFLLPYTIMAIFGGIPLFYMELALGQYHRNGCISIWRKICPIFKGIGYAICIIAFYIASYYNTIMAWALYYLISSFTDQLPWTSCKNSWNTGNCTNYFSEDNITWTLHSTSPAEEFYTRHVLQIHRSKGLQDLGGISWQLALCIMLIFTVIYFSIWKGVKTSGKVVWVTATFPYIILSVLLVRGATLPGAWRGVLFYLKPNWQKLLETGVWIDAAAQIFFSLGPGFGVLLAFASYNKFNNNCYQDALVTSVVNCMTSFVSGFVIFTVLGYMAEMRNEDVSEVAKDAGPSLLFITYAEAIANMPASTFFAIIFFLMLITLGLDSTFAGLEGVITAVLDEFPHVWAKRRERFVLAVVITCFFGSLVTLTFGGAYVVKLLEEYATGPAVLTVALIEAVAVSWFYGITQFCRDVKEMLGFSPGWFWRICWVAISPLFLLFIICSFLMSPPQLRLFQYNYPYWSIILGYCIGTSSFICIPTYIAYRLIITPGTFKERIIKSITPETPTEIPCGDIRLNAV
Source text: With PET imaging, uptake inhibitor effects may be measured based on the proportion of SERT sites blocked in the brain. […] Safety was monitored by clinical and laboratory evaluations, including vital signs, physical examination, clinical chemistry, hematology, urinalysis, and ECG.

[4] = 2-week rat toxicology and toxicokinetic study; type: in vivo; conditions: for Cmax / Tmax / AUC(0-t): po; for AUC(0-t): read-out: AUC0-24
[5] = Phase 1b multiple-dose placebo-controlled safety study, 8 weeks; type: in vivo, human
Source text: This Phase 1b study enrolled 46 male and female subjects.

[6] = Rat pilot developmental toxicity study
Method: Clinical observations, body weights, and food consumption were recorded periodically. On GD 20, a laparohysterectomy was performed on each surviving female. The uteri, placentas, and ovaries were examined; gravid uterine weights, the numbers of fetuses, early and late resorptions, total implantations, and corpora lutea were recorded. The fetuses were weighed, sexed, and examined for external malformations and developmental variations.

[7] = female, Crl:CD (SD)IGS BR, rat, in vivo, 10 mg/kg/day, females, 10 mg/kg/day, Day 0
[8] = female, Crl:CD (SD)IGS BR, rat, in vivo, 10 mg/kg/day, females, 10 mg/kg/day, Day 13
[9] = female, Crl:CD (SD)IGS BR, rat, in vivo, 20 mg/kg/day, females, 20 mg/kg/day, Day 0
[10] = female, Crl:CD (SD)IGS BR, rat, in vivo, 20 mg/kg/day, females, 20 mg/kg/day, Day 13
[11] = female, Crl:CD (SD)IGS BR, rat, in vivo, 40 mg/kg/day, females, 40 mg/kg/day, Day 0
[12] = female, Crl:CD (SD)IGS BR, rat, in vivo, 40 mg/kg/day, females, 40 mg/kg/day, Day 13
[13] = male, Crl:CD (SD)IGS BR, rat, in vivo, 10 mg/kg/day, males, 10 mg/kg/day, Day 13
[14] = male, Crl:CD (SD)IGS BR, rat, in vivo, 20 mg/kg/day, males, 20 mg/kg/day, Day 0
[15] = male, Crl:CD (SD)IGS BR, rat, in vivo, 20 mg/kg/day, males, 20 mg/kg/day, Day 13
[16] = male, Crl:CD (SD)IGS BR, rat, in vivo, 40 mg/kg/day, males, 40 mg/kg/day, Day 0
[17] = male, Crl:CD (SD)IGS BR, rat, in vivo, 40 mg/kg/day, males, 40 mg/kg/day, Day 13
[18] = male, Crl:CD(SD)IGS BR, rat, in vivo, 10 mg/kg/day, males, 10 mg/kg/day, Day 0
[19] = 8 weeks, 25 to 75 mg BID, N = 31, Safety Population

## Clc1ccc([C@]23CNC[C@H]2C3)cc1Cl [amitifadine, (+)-1-(3,4-dichlorophenyl)-3-azabicyclo[3.1.0]hexane]
[1]; 30 mg/kg
  animals with test article-related clinical observations: ⅜
[1]; 100 mg/kg, 16 to 30 minutes post-dosing
  increased respiratory frequency: 23%
[1]; 100 mg/kg
  animals with test article-related clinical observations: 6/8
[1]; 100 mg/kg, later post-treatment intervals
  elevated respiratory frequency: ≥ 33%
[1]; male, Crl:CD(SD)IGS BR, rat, in vivo, single oral gavage
  NOAEL: 30 mg/kg
[2]
  maternal outcome: all females in the 30 mg/kg/day group were euthanized on GD 14
[3]; about 2 hours
  brain SERT occupancy: approximately 48%
[3]; about 7 hours
  brain SERT occupancy: ~32%
[3]; about 7 hours, listed as EB-1010
  brain SERT occupancy: approximately 32%
[3]; ~2 h
  Mean (Range) SERT Occupancy, Mean: 48 (43-54) %
  Mean (Range) SERT Occupancy, Striatum: 48 (44-53) %
  Mean (Range) SERT Occupancy, Thalamus: 48 (41-55) %
[3]; ~7 h
  Mean (Range) SERT Occupancy, Mean: 32 (23-41) %
  Mean (Range) SERT Occupancy, Striatum: 32 (23-37) %
  Mean (Range) SERT Occupancy, Thalamus: 33 (22-44) %
[4]; both sexes, Crl:CD(SD)IGS BR, rat, in vivo, oral gavage, 14 days, read-out: NOAEL for systemic toxicity
  NOAEL at 14 days: 40 mg/kg/day
[4]; [7]
  Cmax: 1.83 µg/mL
  Tmax: 2 h
  AUC(0-t): 11.6 µg·h/mL
[4]; [8]
  Cmax: 1.15 µg/mL
  Tmax: 2 h
  AUC(0-t): 8.19 µg·h/mL
[4]; [9]
  Cmax: 2.8 µg/mL
  Tmax: 1 h
  AUC(0-t): 28.6 µg·h/mL
[4]; [10]
  Cmax: 2.3 µg/mL
  Tmax: 1 h
  AUC(0-t): 22 µg·h/mL
[4]; [11]
  Cmax: 4.44 µg/mL
  Tmax: 4 h
  AUC(0-t): 50.6 µg·h/mL
[4]; [12]
  Cmax: 3.1 µg/mL
  Tmax: 2 h
  AUC(0-t): 32.9 µg·h/mL
[4]; females, 40 mg/kg/day
  increase in mean absolute liver weight: 18%
[4]; [13]
  Cmax: 0.878 µg/mL
  Tmax: 2 h
  AUC(0-t): 6.31 µg·h/mL
[4]; [14]
  Cmax: 3 µg/mL
  Tmax: 1 h
  AUC(0-t): 17.4 µg·h/mL
[4]; [15]
  Tmax: 2 h
  AUC(0-t): 13 µg·h/mL
[4]; [16]
  Cmax: 3.04 µg/mL
  Tmax: 1 h
  AUC(0-t): 34.8 µg·h/mL
[4]; [17]
  Cmax: 2.73 µg/mL
  Tmax: 1 h
  AUC(0-t): 25.6 µg·h/mL
[4]; [18]
  Tmax: 1 h
  AUC(0-t): 7.88 µg·h/mL
[4]; males, 40 mg/kg/day
  increase in mean absolute liver weight: 20%
[5]; [19]
  Abdomibal Pain Upper, % of subjects: 0.0%
  Abdomibal Pain Upper, number of subjects with AE: 0
  Abdominal Pain Lower, % of subjects: 0.0%
  Abdominal Pain Lower, number of subjects with AE: 0
  Diarrhea, % of subjects: 6.5%
  Diarrhea, number of subjects with AE: 2
  Dizziness, % of subjects: 6.5%
  Dizziness, number of subjects with AE: 2
  Gastroesophageal Reflux Disease, % of subjects: 0.0%
  Gastroesophageal Reflux Disease, number of subjects with AE: 0
  Headache, % of subjects: 22.6%
  Headache, number of subjects with AE: 7
  Hyperhidrosis, % of subjects: 3.2%
  Hyperhidrosis, number of subjects with AE: 1
  Increased Appetite, % of subjects: 3.2%
  Increased Appetite, number of subjects with AE: 1
  Metrorrhagia, % of subjects: 3.2%
  Metrorrhagia, number of subjects with AE: 1
  Nausea, % of subjects: 16.1%
  Nausea, number of subjects with AE: 5
  Pruritus, % of subjects: 3.2%
  Pruritus, number of subjects with AE: 1
  Rhinitis Allergic, % of subjects: 3.2%
  Rhinitis Allergic, number of subjects with AE: 1
  Skin Rash, % of subjects: 3.2%
  Skin Rash, number of subjects with AE: 1
  Subjects with at Least One AE, %: 35.5%
  Syncope, % of subjects: 0.0%
  Syncope, number of subjects with AE: 0
  Toothache, % of subjects: 3.2%
  Toothache, number of subjects with AE: 1
  Total Number of Subjects with at Least One AE: 11
[5]; 25-75 mg BID, 8 weeks
  proportion of subjects with TEAEs: 36%
[5]; Randomized Population, N = 31
  Completed Subjects, %: 74.2%
  Premature discontinuation: Adverse Event, %: 3.2%
  Premature discontinuation: Allergic Reaction to Study Medication, %: 3.2%
  Premature discontinuation: Lost to Follow Up, %: 3.2%
  Premature discontinuation: Other, %: 9.7%
  Premature discontinuation: Subject Requested Withdrawal, %: 6.5%
  Withdrawal/Early Termination, %: 25.8%
[5]; end of treatment period
  reduction in mean triglyceride levels: ~29%
[5]; following 2 weeks of treatment
  reduction in mean triglyceride levels: ~23%
[5]; in vivo
  subjects who dropped out due to AEs: 3.2%
[6]; 25 mg/kg/day
  mean fetal weight: statistically significant reduction in mean fetal weight
[6]; 50 mg/kg/day, GD 8, 9 or 10
  maternal mortality: all females in the 50 mg/kg/day group were euthanized in extremis
